Data published in patent US20080050452A1, “METAL-CONTAINING FORMULATIONS AND METHODS OF USE” (priority 2006, published 2008).
≈ marks a conversion by molar mass, not a printed value.

How the values were obtained:
[1] = Compatibility of nanocrystalline silver with excipients; format: physicochemical; settings: 10% aqueous solution of excipient mixed with nanocrystalline silver in glass vial, 40° C. overnight
[2] = Body weight in rat DNBS-induced colitis; format: in vivo, Sprague-Dawley rats; settings: rats with DNBS-induced colitis, intracolonic or oral treatment
[3] = system: DNBS-induced colitis; assay: Total IBD score in rat DNBS-induced colitis; format: in vivo, Sprague-Dawley rats
From the text: Animals: Male Sprague-Dawley rats, weighing approximately 250-300 gm were purchased from Charles River Laboratories (Raleigh, N.C.). The animals were housed under standard conditions with free access to food and water. They were acclimatized for 2-3 days before commencing the experiments. The study protocol was approved by the Institutional Animal Care and Use Committees (IACUC).
Induction of ulcerative colitis: Colitis was produced according to published methods. Animals were anesthetized by intraperitoneal injection of 75 mg/kg of ketamine plus 5 mg/kg of xylazine. A single intracolonic injection of 120 mg/ml of dinitrobenzenesulfonic acid (DNBS) (Sigma Chemicals, St. Louis, Mo.) in 250 micro liter of 50% ethanol was administered through a Tom Cat catheter (Kendall Sovereign, Mansfield, Mass.) with a closed-end tip, connected to a 1 ml syringe and placed 7 cm proximal to the anus. Lubricant was applied to the tip of the catheter before injection, to protect from mucosal injury. After instillation of DNBS, 0.5 ml of air was insufflated and the catheter was removed.
Sulfasalazine (Sigma Chemicals, St Louis, Mo.), at a concentration of 120 mg/ml for intracolonic treatment and 30 mg/ml for oral treatment was used as the reference drug in all the experiments. Sulfasalazine was first dissolved in 0.1M NaOH at a concentration about 30-fold higher than the required final concentration, and then suspended in 1.5% PVA for oral dosing and 5.7% PVA for intracolonic dosing.
One group was not treated and served as no treatment group. Treatment began one day after administration of DNBS.
Macroscopic Observations: Body weight was recorded daily and the animals were examined for their physical appearance. After five days of treatment, animals were sacrificed. The colon was excised between the ileocecal junction and rectum, and opened longitudinally. After scoring of the consistency of the stool the colon was rinsed in normal saline, examined and thickness of the colonic wall and number and size of ulcers were scored. Stool consistency was graded on a scale of 0-3: 0=normal stool, well formed pellets rigid as normal; 1=loose stool, formed pellet with moisture, soft stool keeping in stool shape; 2=loose stool, stools that have abnormal form with much moisture, softer shapeless stool; 3=watery or bloody diarrhea.
Thickness of colonic wall was graded on a scale of 0-4: 0=normal, no thickness; 1=mild thickness in lower portion of the colon; 2=moderate thickness in localized area; 3=moderate thickness extending to the central portion of the colon; 4=severe thickness in the whole colon. Colonic ulceration was graded on a scale of 0-10: 0=no ulcers; 1=one small ulcer less than 2-3 mm; 2=one large ulcer more than 2-3 mm; 3=two large ulcerations more than 2-3 mm in diameter; 4=two or more sites of ulcerations extending 1 cm along the length; 5-10=when an area of ulceration extended more than 1 cm along the length of the colon, the score increases by 1 for each additional cm of involvement. The total IBD score, obtained by the sum of the scores of colonic ulcer, colon thickness and stool consistency for each animal, was calculated for each treatment group.
Statistical Analysis: The results are expressed as the mean ±SE. The statistical significance in the mean total IBD score, histopathological inflammation score, and the immunohistochemical staining of cytokines or MMP-9 was determined using Tukey-Kramer's multiple comparison tests following one-way analysis of variance (ANOVA). The data were calculated with the aid of Instat Graph Pad Software. Differences with a P value less than 0.05 were considered significant.
Methods: Colitis was induced in rats using DNBS as described in Example 25. Animals were treated intracolonically (250 μl of the test reagents) once a day for five days. […] Methods: Colitis was induced in rats using DNBS as described in Example 25. Animals were treated intracolonically (250 μl of the test reagents) once a day for five days.

[4] = system: DNBS-induced colitis; assay: Histopathological inflammation score of colon, rat DNBS-induced colitis; format: in vivo, Sprague-Dawley rats; settings: oral, 100 mg/kg, five days, vs placebo and untreated
Method: Histopathology: A piece of colonic tissue at 2-4 cm proximal to the anus was excised and fixed in 10% formalin and the sections were stained with hematoxylin and eosin. The remaining length of the colonic tissues was stored at −80° C. for subsequent biochemical assays. The histology slides were examined by a veterinary pathologist who was blinded to the treatment groups. The extent of microscopic mucosal damage of the colon was scored on scale of 0-5 as described with slight modification: 0=normal histological appearance; 1=histological damage limited to surface epithelium, mild infiltration of the submucosa; 2=focal ulceration and cell disruption limited to mucosa, abnormal appearance of colonic wall, mild infiltration of inflammatory cells; 3=focal, transmural inflammation and ulceration, with mild to moderate infiltration of inflammatory cells; 4=Extensive transmural ulceration and inflammation bordered by areas of normal mucosa, moderate infiltration of inflammatory cells; 5=extensive transmural ulceration and inflammation involving entire section from epithelium to serosa, severe infiltration of inflammatory cells.
Statistical Analysis: The results are expressed as the mean ±SE. […] The data were calculated with the aid of Instat Graph Pad Software. […]

[5] = system: IL-1β; assay: Immunohistochemical staining of colon, rat DNBS-induced colitis; format: in vivo; settings: oral treatment five days
Method: (§1) Immunohistochemistry: A Universal Streptavidin/Biotin detection system (Thermo Shandon, Pittsburgh, Pa.) was used for immunohistochemical staining of formalin fixed, paraffin embedded biopsies of the colon. After dewaxing, and hydration, sections were treated with protein blocking agent to reduce non-specific binding of antibodies. The tissues were then incubated with rabbit anti-rat TNF-α, or mouse anti-rat IL-12 p70 antibodies (Biosource International, Inc, Camarillo, Calif.); rabbit anti-rat IL-1β (Serotec, Raleigh, N.C.) or rabbit anti-rat MMP-9 antibody (Chemicon International, Telecuma, Calif.) in 1% bovine serum albumin in phosphate buffered saline. Incubations with secondary antibodies, streptavidin/biotin, and chromogenic detection of peroxidase were performed according to the manufacturer's protocol. Sections were counterstained, dehydrated, mounted and examined. The intensity of the immuno-peroxidase staining was graded as described previously. Expression of cytokines was graded as: 0, no staining in the section; 1, less than 25% of the section; 2, 25-50% of the section; 3, 50-75% of the section; 4, >75% of the section with significant staining.

[6] = system: MMP-9; assay: as above; format: in vivo; settings: colonic tissues, oral treatment, vs placebo and no treatment
Method: as §1

[7] = system: TNF-α; assay: as above; format: in vivo; settings: oral treatment five days
Method: as §1

[8] = system: Enterobacter cloacae; assay: MIC assay; format: cell-based; settings: Ent. cloacae
[9] = system: Escherichia coli; assay: MIC assay; format: cell-based
[10] = system: Staphylococcus aureus; assay: MIC assay; format: cell-based; settings: solutions in 0.1 M lactate buffer pH 4.0
[11] = system: Staphylococcus epidermidis; assay: MIC assay; format: cell-based; settings: S. epiderm (ATCC); solutions in 0.1 M lactate buffer pH 4.0
[12] = system: Streptococcus pyogenes; assay: MIC assay; format: cell-based; settings: solutions in 0.1 M lactate buffer pH 4.0
[13] = system: Streptococcus pneumoniae; assay: MIC assay; format: cell-based; settings: solutions in 0.1 M lactate buffer pH 4.0
[14] = system: Pseudomonas aeruginosa; assay: MIC assay; format: cell-based; settings: solutions in 0.1 M lactate buffer pH 4.0

For `CC(O)CO` (stereo not drawn) [Propylene glycol], the “Reaction with nanocrystalline silver” value [1] was “Discoloration”.
With `CCOCCOCCO` [Transcutol, diethylene glycol monoethyl ether] the “Reaction with nanocrystalline silver” value [1] was “Grey color - no discoloration”.
For `CCCCCCCCCCCCCCCCCC(=O)O` [Stearic acid], the “Reaction with nanocrystalline silver” value [1] was “Grey color - no discoloration”.
With `CCCOC(=O)c1ccc(O)cc1` [Propylparaben] the “Reaction with nanocrystalline silver” value [1] was “Green discoloration”.
In the case of Polyoxyl 40 stearate, the “Reaction with nanocrystalline silver” value [1] is reported as “Grey color - no discoloration”.
For Sodium parabens, the “Reaction with nanocrystalline silver” value [1] was “Precipitation”.
For `COC(=O)c1ccc(O)cc1` [Methylparaben], the “Reaction with nanocrystalline silver” value [1] was “Brown discoloration”.
With PEG 400 the “Reaction with nanocrystalline silver” value [1] was “Grey color - no discoloration”.
With `CCCCCCCCCCCCCCCCCCO` [Cetearyl alcohol] the “Reaction with nanocrystalline silver” value [1] was “Light brown/green/black”.
For `CCCCCCCCCCCCCC(=O)OC(C)C` [Isopropyl myristate], the “Reaction with nanocrystalline silver” value [1] was “Grey color - no discoloration”.
With `CCCCCCCCCCCCCCCCO` [Cetyl alcohol] the “Reaction with nanocrystalline silver” value [1] was “Grey color - no discoloration”.
In the case of `OCc1ccccc1` [Benzyl alcohol], the “Reaction with nanocrystalline silver” value [1] is reported as “Grey/slightly red”.
In the case of `O=C([O-])c1ccccc1.[Na+]` [Sodium benzoate], the “Reaction with nanocrystalline silver” value [1] is reported as “White precipitate”.
For `O=C(O)c1cc(/N=N/c2ccc(S(=O)(=O)Nc3ccccn3)cc2)ccc1O` [sulfasalazine, salicylazosulfapyridine], the body weight change [2] was “started gaining body weight after one day of treatment”, the “total IBD score vs placebo” value ([3]; Example 27, intracolonic, 100 mg/kg) was “significantly reduced” and the “total IBD score vs placebo” value ([3]; Example 28, intracolonic, 100 mg/kg) was “significantly reduced”. For the same molecule, the “total IBD score” value ([3]; intracolonic, 100 mg/kg, five days) was “Significant reduction”, the histopathological inflammation score [4] was “significantly reduced” and the “expression of IL-1β (immunohistochemical staining)” value [5] was “significantly reduced”. The “expression of MMP-9 (immunohistochemical staining)” value [6] was “significantly reduced” and the “expression of TNF-α (immunohistochemical staining)” value [7] was “significantly reduced”.
In the case of `OO` [Sample H2O2, hydrogen peroxide], the “Reaction with nanocrystalline silver” value [1] is reported as “Brown discoloration after drying”, the MIC ([8]; absence of catalase and superoxide dismutase (−)) is reported as 63 mg/L (≈ 1850 µM) and the MIC ([8]; presence of catalase and superoxide dismutase (+)) is reported as >500 mg/L. For the same molecule, the MIC ([9]; E. coli, absence of catalase and superoxide dismutase (−)) was 31 mg/L (≈ 911 µM) and the MIC ([9]; E. coli, presence of catalase and superoxide dismutase (+)) was >500 mg/L.
With `CCCCCCCCCCCCCCCCCC(=O)OCC(O)CO` (stereo not drawn) [Glycerol monostearate] the “Reaction with nanocrystalline silver” value [1] was “Brown discoloration”.
Work on silver oxide [Ag2O] yielded an MIC ([10]; S. aureus (ATCC)) of 3 mg/L, an MIC ([10]; S. aureus (clin.)) of 6 mg/L and an MIC [11] of 2 mg/L. For the same molecule, the MIC ([12]; S. pyog (clin. 303)) was 2 mg/L, the MIC ([12]; S. pyog (clin. 304)) was 3 mg/L and the MIC ([13]; S. pneumo (clin 314)) was 3 mg/L. The MIC ([13]; S. pneumo (clin 315)) was 2 mg/L, the MIC ([14]; P. aerug (ATCC)) was 0.8 mg/L and the MIC ([14]; P. aerug. (clin.)) was 2 mg/L. For the same molecule, the MIC ([9]; E. coli (ATCC), solutions in 0.1 M lactate buffer pH 4.0) was 0.8 mg/L, the “total IBD score vs placebo” value ([3]; Example 27, intracolonic 250 μl once a day for five days, 0.25% homogenized) was “unable to show significant reduction” and the “total IBD score vs placebo” value ([3]; Example 27, intracolonic 250 μl once a day for five days, 0.5% homogenized) was “unable to show significant reduction”. For the same molecule, the “total IBD score vs placebo” value ([3]; Example 27, intracolonic 250 μl once a day for five days, 0.5% sonicated nanodispersion) was “significantly reduced”, the “total IBD score vs placebo” value ([3]; Example 28, intracolonic 250 μl once a day for five days, 0.5% sonicated nanodispersion) was “significantly reduced” and the “total IBD score vs placebo” value ([3]; Example 28, intracolonic 250 μl once a day for five days, 1.5% sonicated nanodispersion) was “significantly reduced”.
